# Data: US10259810B2, “N-sulfonylated pyrazolo[3,4-b]pyridin-6-carboxamides and method of use” (AbbVie S.à.r.l., priority 2015, dated 2019)
# pEC50: −log10 of the molar value.
# Tests used:
# [1] = target: T1, ΔF508-CFTR (Homo sapiens, UniProt P13569, DEL508-508); experiment: CFTR cell surface levels using HRP-tagged ΔF508-CFTR expressing CFBE cells, in the presence of a co-corrector; assay type: cell-based
# T1 construct: host or cells: CFBE41o-, doxycycline-inducible
# In short: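 Chemiluminescent read-out of surface HRP (15 min, dark) after PBS washes. Activity is normalized as 100×(sample−DMSO)/(3 μM co-corrector alone−DMSO).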
# [2] = target: T1, ΔF508-CFTR; experiment: CFTR cell surface levels using HRP-tagged ΔF508-CFTR expressing CFBE cells, intrinsic corrector capacity; assay type: cell-based; design: % Activation: concentration or dose not given beside the values
# In short: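 Read-out: chemiluminescent HRP activity of ECL4-HRP-tagged ΔF508-CFTR at the cell surface, 15 min substrate in dark. Normalized as 100×(sample−DMSO)/(positive control−DMSO).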
# [3] = HRP-tagged ΔF508-CFTR CFBE cells, in the presence of 3 μM co-corrector
# [4] = HRP-tagged ΔF508-CFTR CFBE cells, in the presence of 3 μM co-corrector, read-out: EC50
# [5] = HRP-tagged ΔF508-CFTR expressing CFBE41o- cells, compound alone (intrinsic corrector capacity), 20 hours at 33° C.
# [6] = HRP-tagged ΔF508-CFTR expressing CFBE41o- cells, compound alone (intrinsic corrector capacity), 20 hours at 33° C., read-out: EC50
# T1 sequence (P13569 with tags, fused parts or gaps DEL508-508): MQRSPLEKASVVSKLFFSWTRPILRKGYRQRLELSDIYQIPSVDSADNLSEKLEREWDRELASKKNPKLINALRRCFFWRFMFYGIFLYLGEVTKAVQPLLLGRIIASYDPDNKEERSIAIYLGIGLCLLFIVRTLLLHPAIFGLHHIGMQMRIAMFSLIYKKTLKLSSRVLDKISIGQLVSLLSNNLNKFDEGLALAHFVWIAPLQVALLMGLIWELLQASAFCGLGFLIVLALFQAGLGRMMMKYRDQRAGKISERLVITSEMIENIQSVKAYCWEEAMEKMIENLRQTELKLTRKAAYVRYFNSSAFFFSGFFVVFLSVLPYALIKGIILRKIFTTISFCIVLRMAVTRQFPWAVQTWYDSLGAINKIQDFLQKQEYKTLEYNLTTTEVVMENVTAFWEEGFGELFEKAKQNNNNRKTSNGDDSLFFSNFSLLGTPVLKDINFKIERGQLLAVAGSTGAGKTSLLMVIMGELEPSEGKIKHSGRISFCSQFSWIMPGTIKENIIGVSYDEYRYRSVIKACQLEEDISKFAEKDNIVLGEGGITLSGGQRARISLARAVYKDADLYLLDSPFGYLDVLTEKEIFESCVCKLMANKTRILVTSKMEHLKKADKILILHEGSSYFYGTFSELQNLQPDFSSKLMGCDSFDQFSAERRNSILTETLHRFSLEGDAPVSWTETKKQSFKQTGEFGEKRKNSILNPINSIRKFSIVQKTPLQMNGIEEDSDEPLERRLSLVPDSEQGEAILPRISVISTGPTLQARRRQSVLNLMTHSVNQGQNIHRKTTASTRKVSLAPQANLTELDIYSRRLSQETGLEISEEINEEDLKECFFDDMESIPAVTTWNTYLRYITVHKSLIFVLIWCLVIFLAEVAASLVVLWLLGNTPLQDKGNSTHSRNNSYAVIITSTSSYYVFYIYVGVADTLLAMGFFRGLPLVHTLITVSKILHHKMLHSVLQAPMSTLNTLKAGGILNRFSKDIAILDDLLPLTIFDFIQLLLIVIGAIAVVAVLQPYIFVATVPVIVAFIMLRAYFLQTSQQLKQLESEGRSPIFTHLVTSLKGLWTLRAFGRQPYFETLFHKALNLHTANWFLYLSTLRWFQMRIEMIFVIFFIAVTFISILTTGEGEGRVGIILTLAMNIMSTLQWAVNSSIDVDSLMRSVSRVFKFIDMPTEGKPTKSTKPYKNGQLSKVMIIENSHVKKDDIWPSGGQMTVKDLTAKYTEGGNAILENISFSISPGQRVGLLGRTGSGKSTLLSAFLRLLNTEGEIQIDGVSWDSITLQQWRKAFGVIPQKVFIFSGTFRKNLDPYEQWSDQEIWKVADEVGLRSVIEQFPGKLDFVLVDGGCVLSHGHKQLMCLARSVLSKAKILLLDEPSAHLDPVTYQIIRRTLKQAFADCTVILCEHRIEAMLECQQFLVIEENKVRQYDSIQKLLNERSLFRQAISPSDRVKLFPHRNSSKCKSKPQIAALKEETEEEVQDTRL
SMILES,"% Activation [1, 3] [%]","pEC50 [1, 4]","% Activation [2, 5] [%]","pEC50 [2, 6]",pEC50 [1],pEC50 [2]
"CC(C)N1CCN(C2CCN(c3cc(C(=O)NS(=O)(=O)N4CCC4)nc4c3c(C3CCC3)nn4-c3ccc(F)cc3)CC2)CC1 [Compound 651, N-(azetidine-1-sulfonyl)-3-cyclobutyl-1-(4-fluorophenyl)-4-{4-[4-(propan-2-yl)piperazin-1-yl]piperidin-1-yl}-1H-pyrazolo[3,4-b]pyridine-6-carboxamide]",532.4,6.89,317.85,6.69,,
"CS(=O)(=O)NC(=O)c1cc(N2CCC(N3CCN(C4CC4)CC3)CC2)c2c(C3CCC3)nn(-c3ccccc3)c2n1 [Compound 556, 3-cyclobutyl-4-[4-(4-cyclopropylpiperazin-1-yl)piperidin-1-yl]-N-(methanesulfonyl)-1-phenyl-1H-pyrazolo[3,4-b]pyridine-6-carboxamide]",595.8,6.87,386,7.19,,
"CC(=O)N1CCC2CN(c3cc(C(=O)NS(C)(=O)=O)nc4c3c(C3CCC3)nn4-c3ccccc3)CCC21 (centres unmarked) [Compound 216, 4-(1-acetyloctahydro-5H-pyrrolo[3,2-c]pyridin-5-yl)-3-cyclobutyl-N-(methanesulfonyl)-1-phenyl-1H-pyrazolo[3,4-b]pyridine-6-carboxamide]",456.1,6.52,275.67,6.12,,
"CN(C)S(=O)(=O)NC(=O)c1cc(N2CCC(N3CCCC(C(F)(F)F)C3)CC2)c2c(C3CCC3)nn(-c3ccc(F)cc3)c2n1 (centres unmarked) [Compound 571, 3-cyclobutyl-N-(dimethylsulfamoyl)-1-(4-fluorophenyl)-4-[3-(trifluoromethyl)[1,4'-bipiperidin]-1'-yl]-1H-pyrazolo[3,4-b]pyridine-6-carboxamide]",487.9,7.11,268.15,6.89,,
"COCCS(=O)(=O)NC(=O)c1cc(OCC2CCOCC2)c2c(C3CCC3)nn(-c3ccccc3)c2n1 [Compound 315, 3-cyclobutyl-N-(2-methoxyethanesulfonyl)-4-[(oxan-4-yl)methoxy]-1-phenyl-1H-pyrazolo[3,4-b]pyridine-6-carboxamide]",315.5,6.99,154.87,6.66,,
"CS(=O)(=O)NC(=O)c1cc(-c2ccc(N3CCC(C#N)CC3)nc2)c2c(OC3CCOC3)nn(-c3ccccc3)c2n1 (centres unmarked) [Compound 277, 4-[6-(4-cyanopiperidin-1-yl)pyridin-3-yl]-N-(methanesulfonyl)-3-[(oxolan-3-yl)oxy]-1-phenyl-1H-pyrazolo[3,4-b]pyridine-6-carboxamide]",355.4,6.90,155.4,6.60,,
"COCC1CCN(c2cc(C(=O)NS(=O)(=O)CCNC(C)=O)nc3c2c(C2CCC2)nn3-c2ccccc2)CC1 [Compound 386, N-(2-acetamidoethanesulfonyl)-3-cyclobutyl-4-[4-(methoxymethyl)piperidin-1-yl]-1-phenyl-1H-pyrazolo[3,4-b]pyridine-6-]",385.05,6.16,237.85,5.67,,
"COCCS(=O)(=O)NC(=O)c1cc(N2CCC(CN3CCCC3)CC2)c2c(C3CCC3)nn(-c3ccccc3)c2n1 [Compound 464, 3-cyclobutyl-N-(2-methoxyethanesulfonyl)-1-phenyl-4-{4-[(pyrrolidin-1-yl)methyl]piperidin-1-yl}-1H-pyrazolo[3,4-b]pyridine-6-carboxamide]",423.3,6.77,277.5,6.51,,
"O=C(c1cc(N2CCC(CN3CCCC3)CC2)c2c(C3CCC3)nn(-c3ccccc3)c2n1)N1CCCCS1(=O)=O [Compound 663, 2-(3-cyclobutyl-1-phenyl-4-{4-[(pyrrolidin-1-yl)methyl]piperidin-1-yl}-1H-pyrazolo[3,4-b]pyridine-6-carbonyl)-1λ^6,2-thiazinane-1,1-dione]",206.5,6.99,57.9,6.63,,
"CCS(=O)(=O)NC(=O)c1cc(-c2ccc(N3CCOCC3)nc2)c2c(C)nn(-c3cccc(C(F)(F)F)c3)c2n1 [Compound 58, N-(ethanesulfonyl)-3-methyl-4-[6-(morpholin-4-yl)pyridin-3-yl]-1-[3-(trifluoromethyl)phenyl]-1H-pyrazolo[3,4-b]pyridine-6-carboxamide]",352.5,6.37,196.2,6.12,,
"CC(C)c1nn(C2CCCCC2)c2nc(C(=O)NS(C)(=O)=O)cc(-c3cnc(N(C)C)nc3)c12 [Compound 9, 1-cyclohexyl-4-[2-(dimethylamino)pyrimidin-5-yl]-N-(methanesulfonyl)-3-(propan-2-yl)-1H-pyrazolo[3,4-b]pyridine-6-carboxamide]",335,6.30,143.05,6.10,,
"CS(=O)(=O)NC(=O)c1cc(N2CCN(CC(F)(F)F)CC2)c2c(C3CCC3)nn(-c3ccccc3)c2n1 [Compound 329, 3-cyclobutyl-N-(methanesulfonyl)-1-phenyl-4-[4-(2,2,2-trifluoroethyl)piperazin-1-yl]-1H-pyrazolo[3,4-b]pyridine-6-carboxamide]",318.4,6.11,163.85,6.80,,
"CCS(=O)(=O)NC(=O)c1cc(-c2ccc(N3CCOCC3)nc2)c2c(C(C)C)nn(-c3ccccc3)c2n1 [Compound 35, N-(ethanesulfonyl)-4-[6-(morpholin-4-yl)pyridin-3-yl]-1-phenyl-3-(propan-2-yl)-1H-pyrazolo[3,4-b]pyridine-6-carboxamide]",509.7,6.46,265.23,6.27,,
"CONS(=O)(=O)NC(=O)c1cc(N2CCC(N3CCOCC3)CC2)c2c(C3CCC3)nn(-c3ccc(F)cc3)c2n1 [Compound 592, 3-cyclobutyl-1-(4-fluorophenyl)-N-(methoxysulfamoyl)-4-[4-(morpholin-4-yl)piperidin-1-yl]-1H-pyrazolo[3,4-b]pyridine-6-carboxamide]",518.55,7.25,300.8,6.74,,
"CS(=O)(=O)NC(=O)c1cc(N2CCC(N3CCC(C(F)(F)F)C3)CC2)c2c(C3CCC3)nn(-c3ccc(F)cc3)c2n1 (centres unmarked) [Compound 564, 3-cyclobutyl-1-(4-fluorophenyl)-N-(methanesulfonyl)-4-{4-[3-(trifluoromethyl)pyrrolidin-1-yl]piperidin-1-yl}-1H-pyrazolo[3,4-b]pyridine-6-carboxamide]",587.4,7.39,361.35,6.93,,
"COCC1CCN(c2cc(C(=O)NS(=O)(=O)C3CCNC3)nc3c2c(C2CCC2)nn3-c2ccccc2)CC1 (centres unmarked) [Compound 387, 3-cyclobutyl-4-[4-(methoxymethyl)piperidin-1-yl]-1-phenyl-N-(pyrrolidine-3-sulfonyl)-1H-pyrazolo[3,4-b]pyridine-6-carboxamide]",168.9,6.79,60.58,6.34,,
"CO[C@H]1C[C@@H](c2nn(-c3ccccc3)c3nc(C(=O)NS(C)(=O)=O)cc(-c4ccc(N5CCC(C#N)CC5)nc4)c32)C1 [Compound 194, 4-[6-(4-cyanopiperidin-1-yl)pyridin-3-yl]-N-(methanesulfonyl)-3-(cis-3-methoxycyclobutyl)-1-phenyl-1H-pyrazolo[3,4-b]pyridine-6-carboxamide]",427.45,6.43,213.75,6.13,,
"O=C(NS(=O)(=O)N1CC(F)(F)C1)c1cc(N2CCC(N3CCOCC3)CC2)c2c(C3CCC3)nn(-c3ccc(F)cc3)c2n1 [Compound 580, 3-cyclobutyl-N-(3,3-difluoroazetidine-1-sulfonyl)-1-(4-fluorophenyl)-4-[4-(morpholin-4-yl)piperidin-1-yl]-1H-pyrazolo[3,4-b]pyridine-6-carboxamide]",387.45,7.28,201.52,6.88,,
"CS(=O)(=O)NC(=O)c1cc(CN2CCOCC2)c2c(C3CCC3)nn(-c3ccc(F)cc3)c2n1 [Compound 519, 3-cyclobutyl-1-(4-fluorophenyl)-N-(methanesulfonyl)-4-[(morpholin-4-yl)methyl]-1H-pyrazolo[3,4-b]pyridine-6-carboxamide]",252.3,5.99,114.4,5.48,,
"CS(=O)(=O)NC(=O)c1cc(N2CCC[C@@H](CO)C2)c2c(C3CCC3)nn(-c3ccccc3)c2n1 [Compound 349, 3-cyclobutyl-4-[(3R)-3-(hydroxymethyl)piperidin-1-yl]-N-(methanesulfonyl)-1-phenyl-1H-pyrazolo[3,4-b]pyridine-6-carboxamide]",327.9,,161.7,,6.37,6.29
"CN1CCN(Cc2cc(C(=O)NS(C)(=O)=O)nc3c2c(C2CCC2)nn3-c2ccc(F)cc2)CC1 [Compound 518, 3-cyclobutyl-1-(4-fluorophenyl)-N-(methanesulfonyl)-4-[(4-methylpiperazin-1-yl)methyl]-1H-pyrazolo[3,4-b]pyridine-6-carboxamide]",189.55,5.51,35.86,,,
